Entries after “also recorded” stand apart in the source; their conditions may differ.
Experiments:
gram-positive bacteria = assay: Physiological properties: growth inhibition; assay type: cell-based; settings: in words
[1] = system: Bacillus subtilis ATCC 6633; assay: MIC, antibacterial activity on heart infusion agar; assay type: cell-based; settings: inoculum 10^6 CFU/ml
Experimental: (§1) Using heart infusion agar as a medium the MIC (minimum inhibition concentration) of Antibiotics TM-531 B and TM-531 C against various bacteria were measured using an inoculum size of 10^6 CFU/ml, to determine its antibacterial activity.

Micrococcus luteus NIHJ = assay: MIC, antibacterial activity on heart infusion agar; assay type: cell-based; settings: inoculum 10^6 CFU/ml
Experimental: as §1

[2] = system: Staphylococcus epidermidis TPR-25; assay: MIC, antibacterial activity on heart infusion agar; assay type: cell-based; settings: inoculum 10^6 CFU/ml
Experimental: as §1

[3] = system: Staphylococcus epidermidis IID 866; assay: MIC, antibacterial activity on heart infusion agar; assay type: cell-based; settings: inoculum 10^6 CFU/ml
Experimental: as §1

[4] = system: Staphylococcus aureus Smith; assay: MIC, antibacterial activity on heart infusion agar; assay type: cell-based; settings: inoculum 10^6 CFU/ml
Experimental: as §1

[5] = system: Staphylococcus aureus FDA 209P; assay: MIC, antibacterial activity on heart infusion agar; assay type: cell-based; settings: inoculum 10^6 CFU/ml
Experimental: as §1

Bacillus licheniformis = assay: MIC, antibacterial activity on heart infusion agar; assay type: cell-based; settings: inoculum 10^6 CFU/ml
Experimental: as §1

[6] = system: Escherichia coli NIHJ C-2; assay: MIC, antibacterial activity on heart infusion agar; assay type: cell-based; settings: inoculum 10^6 CFU/ml
Experimental: as §1

[7] = system: Pseudomonas aeruginosa IID 1052; assay: MIC, antibacterial activity on heart infusion agar; assay type: cell-based; settings: inoculum 10^6 CFU/ml
Experimental: as §1

[8] = system: Staphylococcus aureus TPR-23; assay: MIC, antibacterial activity on heart infusion agar; assay type: cell-based; settings: inoculum 10^6 CFU/ml
Experimental: as §1

[9] = system: Streptococcus faecalis ATCC 8043; assay: MIC, antibacterial activity on heart infusion agar; assay type: cell-based; settings: inoculum 10^6 CFU/ml
Experimental: as §1

[10] = Improving the feed efficiency when incorporated into feeds; assay type: in vivo; settings: incorporated into feeds for poultry, hogs, etc.
[11] = system: plant pathogenic microorganisms; assay: Physiological properties: growth inhibition; assay type: cell-based; settings: in words
[12] = Classification of Nature (basic, acidic or neutral); assay type: physicochemical; settings: measured as the sodium salt
[13] = system: protozoa as hog dysentery, coccidium, toxoplasma and trypanosoma; assay: Physiological properties: growth inhibition; assay type: cell-based; settings: in words
yeasts = assay: Physiological properties: growth inhibition; assay type: cell-based; settings: in words
Solubility in solvents = assay type: physicochemical; settings: measured as the sodium salt
gram-negative bacteria = assay: Physiological properties: growth inhibition; assay type: cell-based; settings: in words

CC/C=C(\C[C@@]1(C)COC2(CC[C@@](C)([C@H]3C[C@H](O[C@@H]4C[C@@H](O)[C@H](OC)[C@@H](C)O4)[C@@H](C)C4(O[C@@H](C5O[C@@](O)(CO)[C@H](C)C[C@@H]5C)C[C@H]4C)O3)O2)C[C@@H]1O)C(=O)C(C)CC(C)C(=O)[O-].[Na+] (some centres unmarked) [TM-531 C]
growth inhibition of gram-positive bacteria (gram-positive bacteria): inhibits the growth; also recorded: excellent growth inhibitory activity
MIC (minimum inhibition concentration) [1]: 25 µg/mL
MIC (minimum inhibition concentration) (Micrococcus luteus NIHJ): 12.5 µg/mL
MIC (minimum inhibition concentration) [2]: 25 µg/mL
MIC (minimum inhibition concentration) [3]: 25 µg/mL
MIC (minimum inhibition concentration) [4]: 25 µg/mL
MIC (minimum inhibition concentration) [5]: 12.5 µg/mL
MIC (minimum inhibition concentration) (Bacillus licheniformis): 12.5 µg/mL
MIC (minimum inhibition concentration) [6]: > 100 µg/mL
MIC (minimum inhibition concentration) [7]: > 100 µg/mL
MIC (minimum inhibition concentration) [8]: 50 µg/mL
MIC (minimum inhibition concentration) [9]: 12.5 µg/mL
improving the feed efficiency [10]: effective
growth inhibition of plant pathogenic microorganisms [11]: inhibits the growth; also recorded: excellent growth inhibitory activity
Classification of Nature (basic, acidic or neutral) [12]: Acidic
growth inhibition of protozoa [13]: inhibits the growth; also recorded: excellent growth inhibitory activity
activity against yeasts (yeasts): ineffective
Solubility in organic solvents (Solubility in solvents; methanol, ethanol, acetone, ethyl acetate, n-hexane, chloroform and benzene): soluble
Solubility in water (Solubility in solvents; water): Insoluble
activity against gram-negative bacteria (gram-negative bacteria): ineffective

From patent US4359583A, “Antibiotics TM-531 B and TM-531 C” (Taisho Pharmaceutical Co., Ltd., priority 1980, dated 1982)
